Reference: US20210330606A1, “GLUCOSE CONSUMPTION ACCELERATOR AND GLYCOLYSIS ACCELERATOR” (SHINKO SANGYO Co., Ltd., priority 2018, published 2021)

Experiments:
[1] = tested on: Rat-derived fibroblasts (Py-3Y1-S2, subculture strain); assay: Glucose consumption of rat-derived fibroblasts (relative value, control = 100); format: cell-based
Source text: As drugs, 2-amino-1-cyclohexylethanol (Matrix Biochemicals), 2-aminoethanol (Tokyo Chemical Industry Co., Ltd.), 1-amino-2-propanol (Wako Pure Chemical Industries, Ltd.), 2-amino-1-phenylethanol (Tokyo Chemical Industry Co., Ltd.), 1, 3-bis[tris(hydroxymethyl)-methylamino]propane (Tokyo Chemical Industry Co., Ltd.), N-cyclohexylethanolamine (Tokyo Chemical Industry Co., Ltd.), diethanolamine (Wako Pure Chemical Industries, Ltd.), diethylamine (Wako Pure Chemical Industries, Ltd.), dipropylamine (Tokyo Chemical Industry Co., Ltd.), HEPES sodium salt (MP Biomedicals), metoprolol tartrate (Tokyo Chemical Industry Co., Ltd.), morpholine (Wako Pure Chemical Co., Ltd.), octopamine (MP Biomedicals), propylamine (Tokyo Chemical Industry Co., Ltd.), triethylamine (Wako Pure Chemical Co., Ltd.), timolol maleate (Wako Pure Chemical Industries, Ltd.) and tris(hydroxymethyl)aminomethane (Wako Pure Chemical Industries, Ltd.) were used. Each drug was dissolved in distilled water to prepare a sample.
In the culture, DMEM (Nissui Pharmaceutical Co., Ltd.) was used as a culture medium. […] As a control of the drug, the culture was performed in the same manner except that distilled water to which the drug was not added was added to the culture solution instead of the sample.
After the addition of the drug, the glucose concentration of each of the culture solutions was measured immediately after the start of the culture and after the completion of the culture. The glucose concentration was measured using a glucose assay kit (Waco). Then, the glucose concentration after the completion of the culture was divided by the glucose concentration immediately after the start of the culture (5.6 mmol per liter) to calculate the glucose consumption.
The fibroblasts were cultured. […] Streptozotocin, alloxan, and nicotinamide are drugs all known to produce symptoms of diabetes when administered to the body.
Next, samples of streptozotocin, alloxan, and nicotinamide plus 2-amino-1-phenylethanol (2-A-1-P) were prepared in the same manner. The concentration of 2-A-1-P was 1 mg/ml. The relative value of the glucose consumption was calculated in the same manner.
The fibroblasts were cultured.
The concentration of 2-A-1-P was 0.5 mg/ml. The relative value of the glucose consumption was calculated in the same manner.

[2] = tested on: Py-3Y1-S2, TE-13, VERO and HepG2 cells; assay: Lactate concentration after 2 to 3 days culture, lactate metabolism, mean over four cell types (Example 9); format: cell-based, rat, human, African green monkey
Protocol: (§1) After the addition of the drug, the culture solution was diluted so that the weight ratio of the culture solution to distilled water was 1:19, and the lactate concentration of the diluted culture solution was measured. The lactate concentration was measured using a lactate assay kit (product name: Lactate Assay Kit-WST, product of Dojindo Laboratories).
First, samples of 2-amino-1-cyclohexylethanol (2-amino-1-cyclohexyl EOH) and 2-amino-1-phenylethanol (2-amino-1-phenyl EOH) were prepared in the same manner as in Example 1. Four types of cells were used as in Example 8, and each of the cells was cultured under the same conditions as in Example 1. […] Thereafter, the culture time was lengthened to 2 to 3 days (48 to 72 hours) compared to Example 8. As a control 1, the culture was performed in the same manner except that distilled water to which the drug was not added was added to the culture solution instead of the sample. As a control 2, the culture was performed in the same manner as the […] except that a sample of biguanide prepared in the same manner as in Example 1 was added to the culture solution instead of the sample. Then, the lactate concentration in each sample was measured in the same manner as in Example 6. Each of the four cells was used for a total of four experiments.

[3] = tested on: rat-derived liver cancer cells (Ry121B, subculture line); assay: Lactate concentration in culture solution of liver cancer cells (relative value, control = 100); format: cell-based; conditions: drug 1 mg/ml, control = 100 (FIG. 7B)
Protocol: (§2) First, samples of 2-amino-1-cyclohexylethanol and 2-amino-1-phenylethanol were prepared in the same manner as in Example 1. The fibroblasts and the liver cancer cells were cultured under the same conditions as in Examples 1 and 5. […] As a control, the culture was performed in the same manner except that distilled water to which the drug was not added was added to the culture solution instead of the sample.
as §1

[4] = tested on: Rat-derived fibroblasts (Py-3Y1-S2, subculture strain); assay: Lactate concentration in culture solution of fibroblasts (relative value, control = 100); format: cell-based; conditions: drug 1 mg/ml, control = 100 (FIG. 7A)
Protocol: as §2, §1

[5] = tested on: Py-3Y1-S2, TE-13, VERO and HepG2 cells; assay: Lactate concentration after 24 to 48 hours culture, mean over four cell types (Example 8); format: cell-based, rat, human, African green monkey; conditions: drug 0.5 mg/ml, mean of five experiments in four cell types
Protocol: as §1
First, a sample of 2-amino-1-cyclohexylethanol (2-amino-1-cyclohexyl EOH) was prepared in the same manner as in Example 1. In addition to the rat-derived fibroblasts (Py-3Y1-S2, subculture line), human-derived esophageal cancer cells (TE-13, subculture line), African green monkey-derived kidney epithelial cells (VERO, subculture line), and human-derived hepatocellular cancer cells (HepG2, subculture line) were used and cultured under the same conditions as in Example 1. […] Thereafter, the culture solutions were further cultured for 24 to 48 hours. The culture time after the addition of the sample was set to the same condition for each cell. As a control 1, the culture was performed in the same manner except that distilled water to which the drug was not added was added to the culture solution instead of the sample. […] Then, the lactate concentration in each sample was measured in the same manner as in Example 6. […]

[6] = tested on: rat-derived liver cancer cells (Ry121B, subculture line); conditions: drug 1 mg/ml, control = 100
[7] = Example 3, fibroblasts, drug alone 1 mg/ml, control = 100
[8] = fibroblasts, drug 1 mg/ml, 12 to 24 hours, control = 100 (FIG. 1B, 2B)
[9] = fibroblasts, drug 0.5 mg/ml, 12 to 24 hours, control = 100 (FIG. 1A, 2A)

Compound: CN(N=O)C(=O)N[C@H]1C(O)O[C@H](CO)[C@@H](O)[C@@H]1O (mixture of isomers) [streptozotocin, reference compound]
- relative value of glucose consumption [1, 7]: about 90

Compound: OCC(CO)(CO)NCCCNC(CO)(CO)CO [1,3-bis[tris(hydroxymethyl)methylamino]propane]
- relative value of glucose consumption [1, 8]: significantly increased glucose consumption

Compound: CC(O)CN (stereo not shown) [1-amino-2-propanol]
- relative value of glucose consumption [1, 9]: significantly increased glucose consumption

Compound: NCC(O)C1CCCCC1 (stereo not shown) [2-amino-1-cyclohexylethanol]
- lactate concentration in the culture solution compared to control 1 ([2]; drug 0.5 mg/ml, 2 to 3 days (48 to 72 hours) culture, mean of four experiments): equivalent to that of control 1
- relative value of lactate concentration [3]: about 140
- relative value of lactate concentration [4]: about 145
- lactate concentration in the culture solution [5]: 9.35 mmol/L
- relative value of glucose consumption [6]: about 145
- relative value of glucose consumption ([1]; Example 2, fibroblasts, drug 0.1 mg/ml, control = 100): about 120
- relative value of glucose consumption ([1]; Example 2, fibroblasts, drug 0.25 mg/ml, control = 100): about 130
- relative value of glucose consumption ([1]; Example 2, fibroblasts, drug 0.5 mg/ml, control = 100): about 150
- relative value of glucose consumption [1, 9]: significantly increased glucose consumption
- relative value of glucose consumption [1, 8]: significantly increased glucose consumption

Compound: NCCO [2-aminoethanol]
- relative value of glucose consumption [1, 9]: significantly increased glucose consumption
- relative value of glucose consumption [1, 8]: significantly increased glucose consumption

Compound: O=S(=O)([O-])CCN1CCN(CCO)CC1.[Na+] [HEPES sodium salt]
- relative value of glucose consumption [1, 9]: significantly increased glucose consumption
- relative value of glucose consumption [1, 8]: significantly increased glucose consumption

Compound: OCCNC1CCCCC1 [N-cyclohexylethanolamine]
- relative value of glucose consumption [1, 9]: significantly increased glucose consumption
- relative value of glucose consumption [1, 8]: significantly increased glucose consumption

Compound: [O]=[V](=[O])[O][V](=[O])=[O] [V2O5, reference compound]
- relative value of glucose consumption ([1]; Example 4, fibroblasts, drug alone, vanadium final concentration 1.0 mg/ml (V2O5 not printed separately)): about 115

Compound: O=C1NC(=O)C(=O)C(=O)N1 [alloxan, reference compound]
- relative value of glucose consumption [1, 7]: about 70

Compound: N=C(N)NC(=N)N [biguanide, reference compound]
- lactate concentration relative to Control 1 ([2]; 2 to 3 days culture after addition of biguanide, P<0.05): about 3.5 times
- lactate concentration in the culture solution [5]: increased the lactate concentration

Compound: OCCNCCO [diethanolamine]
- relative value of glucose consumption [1, 9]: significantly increased glucose consumption
- relative value of glucose consumption [1, 8]: significantly increased glucose consumption

Compound: CCNCC [diethylamine]
- relative value of glucose consumption [1, 9]: significantly increased glucose consumption
- relative value of glucose consumption [1, 8]: significantly increased glucose consumption

Compound: CCCNCCC [dipropylamine]
- relative value of glucose consumption [1, 9]: significantly increased glucose consumption
- relative value of glucose consumption [1, 8]: significantly increased glucose consumption

Compound: COCCc1ccc(OCC(O)CNC(C)C)cc1.COCCc1ccc(OCC(O)CNC(C)C)cc1.O=C(O)C(O)C(O)C(=O)O (stereo not shown) [metoprolol tartrate, reference compound]
- relative value of glucose consumption [1, 9]: significantly increased glucose consumption
- relative value of glucose consumption [1, 8]: significantly increased glucose consumption

Compound: C1COCCN1 [morpholine]
- relative value of glucose consumption [1, 9]: significantly increased glucose consumption
- relative value of glucose consumption [1, 8]: significantly increased glucose consumption

Compound: NC(=O)c1cccnc1 [nicotinamide, reference compound]
- relative value of glucose consumption [1, 7]: about 85

Compound: CCCN [propylamine]
- relative value of glucose consumption [1, 9]: significantly increased glucose consumption
- relative value of glucose consumption [1, 8]: significantly increased glucose consumption

Compound: CC(C)(C)NC[C@H](O)COc1nsnc1N1CCOCC1.O=C(O)/C=C\C(=O)O [timolol maleate, reference compound]
- relative value of glucose consumption [1, 9]: significantly increased glucose consumption
- relative value of glucose consumption [1, 8]: significantly increased glucose consumption

Compound: CCN(CC)CC [triethylamine]
- relative value of glucose consumption [1, 9]: significantly increased glucose consumption
- relative value of glucose consumption [1, 8]: significantly increased glucose consumption

Compound: concanavalin A [reference compound]
- relative value of glucose consumption ([1]; Example 4, fibroblasts, ConA alone 100 μg/ml): about 120

Compound: tris(hydroxymethyl)aminomethane
- relative value of glucose consumption [1, 9]: significantly increased glucose consumption
- relative value of glucose consumption [1, 8]: significantly increased glucose consumption
